# Several values for one entry are separate records, joined by “and”; a condition that tells them apart may be missing. Identical values can stand only once. Like-named read-outs stand apart in the source and are kept apart here.
# Assays:
# Sprague Dawley rats = conditions: rat; for Score (histopathology liver necrosis severity score): Sprague Dawley, 72 h; for Score (histopathology liver necrosis severity score) / Liver Necrosis: ip
# Experimental: Sprague Dawley rats Crl:CD from Charles River, Raleigh, N.C. were divided into treated rats that receive a specific concentration of the compound (see Table 1) and. control rats that only received the vehicle in which the compound is mixed (e.g., saline).
# At specified timepoints (6 h, 24 h and 72 h) after administration (intraperitoneal route) of the compound, a set number of rats (usually 3 control and 3 treated) were euthanized and tissues collected. Each, rat was heavily sedated with an overdose of CO2 by inhalation and a maximum amount of blood drawn. Exsanguination of the rat by this drawing of blood kills the rat. The method of collecting the tissues is very important and ensures preserving the quality of the mRNA in the tissues. The body of the rat was then opened up and prosectors rapidly removed the tissues (including) and immediately placed them into liquid nitrogen. […] The organs/tissues were then packaged into well-labeled plastic freezer quality bags and stored at −80 degrees until needed for isolation of the mRNA from a portion of the organ/tissue sample.
# Histopathology scores for each animal (assigned on a compound-dose basis as indicated in Table 1) were entered with gene expression data by using the GeneSpring™ ‘Drawn Gene’ function. Correlations between the histopathology scores and gene expression were conducted with the distance measures listed below:
# Toxicity classifications were entered for training and test set as a parameter column. Toxicity, as defined by observation of necrosis in the at 72 hours after treatment, was entered as a “yes” or “no” for each animal in a compound-dose group. Additionally, a parameter column for random histopathology classification was designated. This was done by randomly assigning the same number of “yes” and “no” calls to the individual animals.
# [1] = test system: toxicologically relevant rat genes (rat CT array)
# [2] = 24 h, dose 1000, listed as APAP
structure (smiles),measurement,setting,value
CC(=O)Nc1ccc(O)cc1 [acetaminophen],Score (histopathology liver necrosis severity score),"Sprague Dawley rats; in vivo, 250 mg/kg",1
same,Score (histopathology liver necrosis severity score),"Sprague Dawley rats; in vivo, 1000 mg/kg",2
same,toxicity at the high dose,Sprague Dawley rats; in vivo,produced toxicity
same,Liver Necrosis,"Sprague Dawley rats; in vivo, 250 mg/kg",no
same,Liver Necrosis,"Sprague Dawley rats; in vivo, 1000 mg/kg",Yes
same,toxicity at the low dose,"Sprague Dawley rats; low dose of Table 1, liver necrosis at 72 hours",not at the low dose
same,Aflatoxin B1 aldehyde reductase expression (treatment/control),[1]; 24 h,3.687 and 4.607 and 5.763
same,3-hydroxyisobutyrate dehydrogenase expression (treatment/control),[1]; [2],0.8093 and 0.6875 and 0.5181
same,14-3-3 zeta expression (treatment/control),[1]; [2],1.279 and 1.34 and 2.193
same,25-DX expression (treatment/control),[1]; [2],1.304 and 1.667 and 1.897
same,60S ribosomal protein L6 expression (treatment/control),[1]; [2],1.31 and 2.123 and 2.39
same,Alpha 1 - inhibitor III expression (treatment/control),[1]; [2],0.4712 and 0.4696 and 0.2941
same,Alpha-2-macroglobulin expression (treatment/control),[1]; [2],0.5487 and 0.4873 and 0.3551
same,Apolipoprotein CIII expression (treatment/control),[1]; [2],0.702 and 0.753 and 0.464
same,Bax (alpha) expression (treatment/control),[1]; [2],1.285 and 1.306 and 1.621
same,Calpactin I heavy chain expression (treatment/control),[1]; [2],1.347 and 1.282 and 1.692
same,Carbamyl phosphate synthetase I expression (treatment/control),[1]; [2],0.7736 and 0.7076 and 0.6953
same,Carbonyl reductase expression (treatment/control),[1]; [2],1.218 and 1.144 and 1.992
same,Cofilin expression (treatment/control),[1]; [2],0.9081 and 0.9679 and 1.261
same,DNA polymerase beta expression (treatment/control),[1]; [2],0.8811 and 1.223 and 1.54
same,Elongation factor-1 alpha expression (treatment/control),[1]; [2],1.174 and 1.533 and 1.746
same,"Endogenous retroviral sequence, 5′ and 3′ LTR expression (treatment/control)",[1]; [2],1.114 and 1.112 and 1.648
same,Enolase alpha expression (treatment/control),[1]; [2],1.382 and 2.619 and 2.308
same,Epidermal growth factor expression (treatment/control),[1]; [2],0.7557 and 0.7312 and 0.6935
same,Extracellular-signal-regulated kinase 1 expression (treatment/control),[1]; [2],0.452 and 0.4073 and 0.261
same,Fas antigen expression (treatment/control),[1]; [2],1.77 and 1.618 and 2.162
same,Gadd153 expression (treatment/control),[1]; [2],1.15 and 1.234 and 2.2302
same,Glucose-regulated protein 78 expression (treatment/control),[1]; [2],1.949 and 2.017 and 1.914
same,Hepatic lipase expression (treatment/control),[1]; [2],0.5231 and 0.4276 and 0.3047
same,ID-1 expression (treatment/control),[1]; [2],1.004 and 1.038 and 1.388
same,IgE binding protein expression (treatment/control),[1]; [2],1.117 and 1.131 and 1.528
same,IkB-a expression (treatment/control),[1]; [2],1.268 and 1.662 and 1.76
same,Insulin-like growth factor binding protein 3 expression (treatment/control),[1]; [2],0.5707 and 0.5952 and 0.4059
same,Liver fatty acid binding protein expression (treatment/control),[1]; [2],0.4243 and 0.4268 and 0.229
same,MAP kinase kinase expression (treatment/control),[1]; [2],1.017 and 1.243 and 1.361
same,Macrophage inflammatory protein-1 alpha expression (treatment/control),[1]; [2],1.158 and 1.138 and 1.685
same,Matrix metalloproteinase-1 expression (treatment/control),[1]; [2],1.41 and 1.586 and 2.447
same,Melanoma-associated antigen ME491 expression (treatment/control),[1]; [2],1.011 and 1.114 and 1.656
same,Monocyte chemotactic protein receptor (CCR2) expression (treatment/control),[1]; [2],1.194 and 1.282 and 1.728
same,NADPH quinone oxidoreductase-1 (DT-diaphorase) expression (treatment/control),[1]; [2],2.511 and 2.716 and 4.842
same,Nucleoside diphosphate kinase beta isoform expression (treatment/control),[1]; [2],1.516
same,Organic anion transporter 3 expression (treatment/control),[1]; [2],0.7554 and 0.5816 and 0.5461
same,Organic cation transporter 3 expression (treatment/control),[1]; [2],1.215 and 1.663 and 2.064
same,Ornithine decarboxylase expression (treatment/control),[1]; [2],1.918 and 2.163 and 3.092
same,Phase-1 RCT 252 expression (treatment/control),[1]; [2],0.7905 and 0.6256
same,Phase-1 RCT-12 expression (treatment/control),[1]; [2],1.884
same,Phase-1 RCT-33 expression (treatment/control),[1]; [2],0.7278 and 0.4867
same,Phase-1 RCT-36 expression (treatment/control),[1]; [2],0.9342 and 0.7084
same,Phase-1 RCT-37 expression (treatment/control),[1]; [2],1.525 and 1.704
same,Phase-1 RCT-38 expression (treatment/control),[1]; [2],0.8079 and 0.6659 and 0.4284
same,Phase-1 RCT-40 expression (treatment/control),[1]; [2],0.3766
same,Phase-1 RCT-48 expression (treatment/control),[1]; [2],0.6762 and 0.5881
same,Phase-1 RCT-65 expression (treatment/control),[1]; [2],1.498
same,Phase-1 RCT-68 expression (treatment/control),[1]; [2],2.006
same,Phase-1 RCT-72 expression (treatment/control),[1]; [2],1.676
same,Phase-1 RCT-78 expression (treatment/control),[1]; [2],0.6314 and 0.4384
same,Phase-1 RCT-83 expression (treatment/control),[1]; [2],0.6151 and 0.4373 and 0.3263
same,Phase-1 RCT-88 expression (treatment/control),[1]; [2],0.5934 and 0.6891 and 0.4014
same,Phase-1 RCT-92 expression (treatment/control),[1]; [2],0.6478 and 0.6327 and 0.3995
same,Phase-1 RCT-102 expression (treatment/control),[1]; [2],0.4854 and 0.3992 and 0.2737
same,Phase-1 RCT-109 expression (treatment/control),[1]; [2],2.054 and 2.291
same,Phase-1 RCT-123 expression (treatment/control),[1]; [2],0.983
same,Phase-1 RCT-127 expression (treatment/control),[1]; [2],0.99 and 1.472
same,Phase-1 RCT-137 expression (treatment/control),[1]; [2],0.72 and 0.8264 and 0.5868
same,Phase-1 RCT-145 expression (treatment/control),[1]; [2],1.2 and 1.522 and 2.335
same,Phase-1 RCT-152 expression (treatment/control),[1]; [2],1.202 and 1.996 and 2.355
same,Phase-1 RCT-154 expression (treatment/control),[1]; [2],2.226
same,Phase-1 RCT-162 expression (treatment/control),[1]; [2],1.476
same,Phase-1 RCT-168 expression (treatment/control),[1]; [2],0.7401 and 0.471
same,Phase-1 RCT-180 expression (treatment/control),[1]; [2],1.523 and 1.839
same,Phase-1 RCT-181 expression (treatment/control),[1]; [2],0.6749
same,Phase-1 RCT-185 expression (treatment/control),[1]; [2],0.5075 and 0.4368 and 0.3225
same,Phase-1 RCT-191 expression (treatment/control),[1]; [2],1.498 and 2.514
same,Phase-1 RCT-192 expression (treatment/control),[1]; [2],1.606 and 1.812
same,Phase-1 RCT-205 expression (treatment/control),[1]; [2],1.793
same,Phase-1 RCT-213 expression (treatment/control),[1]; [2],1.607 and 2.134
same,Phase-1 RCT-214 expression (treatment/control),[1]; [2],0.7129 and 0.7249 and 0.4326
same,Phase-1 RCT-242 expression (treatment/control),[1]; [2],1.936
same,Phase-1 RCT-258 expression (treatment/control),[1]; [2],1.198 and 1.289 and 1.628
same,Phase-1 RCT-264 expression (treatment/control),[1]; [2],0.4839 and 0.3686
same,Phase-1 RCT-271 expression (treatment/control),[1]; [2],0.5952
same,Phase-1 RCT-295 expression (treatment/control),[1]; [2],1.409 and 1.586 and 1.993
same,Phase-1 RCT-296 expression (treatment/control),[1]; [2],0.4087 and 0.2215 and 0.347
same,"Pyruvate kinase, muscle expression (treatment/control)",[1]; [2],1.015 and 0.9969 and 1.833
same,Ref-1 expression (treatment/control),[1]; [2],1.85 and 2.112 and 3.617
same,Ribosomal protein L13A expression (treatment/control),[1]; [2],2.348 and 2.582
same,Ribosomal protein S8 expression (treatment/control),[1]; [2],1.864 and 2.055
same,Sodium/bile acid cotransporter expression (treatment/control),[1]; [2],0.7685 and 0.5902 and 0.8858
same,Superoxide dismutase Mn expression (treatment/control),[1]; [2],1.274 and 1.178 and 1.931
same,T-cell cyclophilin expression (treatment/control),[1]; [2],0.8846 and 1.322 and 1.491
same,Thymosin beta-10 expression (treatment/control),[1]; [2],1.285 and 1.383 and 1.788
same,Transthyretin expression (treatment/control),[1]; [2],0.427 and 0.4938 and 0.34
same,Ubiquitin conjugating enzyme (RAD 6 homologue) expression (treatment/control),[1]; [2],0.9549 and 1.282 and 1.558
same,Uncoupling protein 2 expression (treatment/control),[1]; [2],1.201 and 1.111 and 1.462
same,c-H-ras expression (treatment/control),[1]; [2],1.118 and 1.069 and 0.9092
same,p53 expression (treatment/control),[1]; [2],0.8979 and 1.176 and 1.584
same,{Ribosomal protein L6} expression (treatment/control),[1]; [2],1.978 and 2.321
same,Multidrug resistant protein-1 expression (treatment/control),"[1]; rat, in vivo",1.241 and 1.202 and 1.889
same,Paraoxonase 1 expression (treatment/control),"[1]; rat, in vivo",0.5292 and 0.4965 and 0.3855
